According to patent US11981658B2, “Substituted aminopyridine compounds as EGFR inhibitors” (YUHAN CORPORATION, priority 2021, dated 2024):
Where two headings read alike, the source gives them in different places.

How the values were obtained:
EGFR L858R/T790M/C797S = EGFR L858R/T790M/C797S (Homo sapiens, UniProt P00533, C797S/L858R/T790M); experiment: Biochemical EGFR kinase inhibition assay (Lance Ultra TR-FRET), triple mutant L858R/T790M/C797S
Summary of the method: (§1)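 Kinase activity is measured by TR-FRET phosphopeptide detection. Compounds span 0.003 μM to 10 μM; the 1 h reaction at room temperature is quenched with EDTA, then labelled antibody (2 nM) is incubated 60 min before reading.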

EGFR wildtype (WT) = EGFR wildtype (WT) (Homo sapiens, UniProt P00533); experiment: Biochemical EGFR kinase inhibition assay (Lance Ultra TR-FRET), wildtype
Summary of the method: as §1

EGFR L858R/C797S = EGFR L858R/C797S (Homo sapiens, UniProt P00533, C797S/L858R); experiment: Biochemical EGFR kinase inhibition assay (Lance Ultra TR-FRET), double mutant L858R/C797S
Summary of the method: as §1

EGFR Del19/T790M/C797S = EGFR Del19/T790M/C797S (Homo sapiens, UniProt P00533, C797S/DEL746-750/T790M); experiment: Biochemical EGFR kinase inhibition assay (Lance Ultra TR-FRET), triple mutant del19/T790M/C797S
Summary of the method: as §1

EGFR Del19/C797S = EGFR Del19/C797S (Homo sapiens, UniProt P00533, C797S/DEL746-750); experiment: Biochemical EGFR kinase inhibition assay (Lance Ultra TR-FRET), double mutant del19/C797S
Summary of the method: as §1

[1] = IC50 L858R/T790M/C797S (nM), 100 μM ATP
[2] = Km ATP, read-out: IC50 L858R/T790M/C797S (nM), Km ATP
[3] = Km ATP, read-out: IC50 WT (nM), Km ATP
[4] = IC50 L858R/C797S (nM), 100 μM ATP
[5] = Km ATP, read-out: IC50 L858R/C797S (nM), Km ATP
[6] = IC50 Del19/T790M/C797S (nM), 100 μM ATP
[7] = Km ATP, read-out: IC50 Del19/T790M/C797S (nM), Km ATP
[8] = IC50 Del19/C797S (nM), 100 μM ATP
[9] = Km ATP, read-out: IC50 Del19/C797S (nM), Km ATP
[10] = Km ATP, read-out: IC50 L858R/T790M/C797S (nM) Km ATP
[11] = Km ATP, read-out: IC50 WT (nM) Km ATP
[12] = Km ATP, read-out: IC50 L858R/C797S (nM) Km ATP
[13] = Km ATP, read-out: IC50 Del19/T790M/C797S (nM) Km ATP
[14] = Km ATP, read-out: IC50 Del19/C797S (nM) Km ATP
[15] = ATP at Km, read-out: IC50 L858R/T790M/C797S (nM), Km ATP
[16] = ATP at Km, read-out: IC50 WT (nM), Km ATP
[17] = ATP at Km, read-out: IC50 L858R/C797S (nM), Km ATP
[18] = ATP at Km, read-out: IC50 Del19/T790M/C797S (nM), Km ATP
[19] = ATP at Km, read-out: IC50 Del19/C797S (nM), Km ATP

Chain of EGFR Del19/C797S (P00533 with tags, fused parts or gaps DEL746-750/C797S): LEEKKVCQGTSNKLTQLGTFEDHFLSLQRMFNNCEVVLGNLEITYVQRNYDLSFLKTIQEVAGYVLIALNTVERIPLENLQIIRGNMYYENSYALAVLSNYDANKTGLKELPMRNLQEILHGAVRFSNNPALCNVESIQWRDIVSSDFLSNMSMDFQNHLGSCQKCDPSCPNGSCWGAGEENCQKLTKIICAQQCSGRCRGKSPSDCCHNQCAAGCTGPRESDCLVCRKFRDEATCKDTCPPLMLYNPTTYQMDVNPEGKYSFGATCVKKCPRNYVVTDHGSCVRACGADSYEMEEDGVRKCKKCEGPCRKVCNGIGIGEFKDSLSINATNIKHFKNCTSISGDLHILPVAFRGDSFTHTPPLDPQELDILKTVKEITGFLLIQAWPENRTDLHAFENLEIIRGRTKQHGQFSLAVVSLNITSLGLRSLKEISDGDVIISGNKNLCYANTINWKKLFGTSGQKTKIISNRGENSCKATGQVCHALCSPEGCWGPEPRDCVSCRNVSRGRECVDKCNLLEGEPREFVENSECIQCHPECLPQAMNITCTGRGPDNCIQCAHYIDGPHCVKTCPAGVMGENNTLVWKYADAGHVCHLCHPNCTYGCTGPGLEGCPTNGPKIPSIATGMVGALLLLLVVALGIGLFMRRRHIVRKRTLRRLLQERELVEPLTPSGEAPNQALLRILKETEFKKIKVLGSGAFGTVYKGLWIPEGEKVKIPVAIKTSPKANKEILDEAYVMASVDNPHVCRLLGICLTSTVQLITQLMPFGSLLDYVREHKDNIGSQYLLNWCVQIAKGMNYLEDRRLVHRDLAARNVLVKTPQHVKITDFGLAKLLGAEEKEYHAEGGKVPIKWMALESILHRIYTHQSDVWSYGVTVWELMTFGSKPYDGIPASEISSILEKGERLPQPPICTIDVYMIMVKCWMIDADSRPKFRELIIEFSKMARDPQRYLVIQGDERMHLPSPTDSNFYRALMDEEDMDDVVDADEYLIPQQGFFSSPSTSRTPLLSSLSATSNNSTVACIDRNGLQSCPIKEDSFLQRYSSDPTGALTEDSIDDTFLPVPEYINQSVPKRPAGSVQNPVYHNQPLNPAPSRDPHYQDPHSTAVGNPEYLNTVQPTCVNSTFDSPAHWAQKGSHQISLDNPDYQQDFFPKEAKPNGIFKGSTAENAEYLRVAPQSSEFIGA
Chain of EGFR Del19/T790M/C797S (P00533 with tags, fused parts or gaps DEL746-750/T790M/C797S): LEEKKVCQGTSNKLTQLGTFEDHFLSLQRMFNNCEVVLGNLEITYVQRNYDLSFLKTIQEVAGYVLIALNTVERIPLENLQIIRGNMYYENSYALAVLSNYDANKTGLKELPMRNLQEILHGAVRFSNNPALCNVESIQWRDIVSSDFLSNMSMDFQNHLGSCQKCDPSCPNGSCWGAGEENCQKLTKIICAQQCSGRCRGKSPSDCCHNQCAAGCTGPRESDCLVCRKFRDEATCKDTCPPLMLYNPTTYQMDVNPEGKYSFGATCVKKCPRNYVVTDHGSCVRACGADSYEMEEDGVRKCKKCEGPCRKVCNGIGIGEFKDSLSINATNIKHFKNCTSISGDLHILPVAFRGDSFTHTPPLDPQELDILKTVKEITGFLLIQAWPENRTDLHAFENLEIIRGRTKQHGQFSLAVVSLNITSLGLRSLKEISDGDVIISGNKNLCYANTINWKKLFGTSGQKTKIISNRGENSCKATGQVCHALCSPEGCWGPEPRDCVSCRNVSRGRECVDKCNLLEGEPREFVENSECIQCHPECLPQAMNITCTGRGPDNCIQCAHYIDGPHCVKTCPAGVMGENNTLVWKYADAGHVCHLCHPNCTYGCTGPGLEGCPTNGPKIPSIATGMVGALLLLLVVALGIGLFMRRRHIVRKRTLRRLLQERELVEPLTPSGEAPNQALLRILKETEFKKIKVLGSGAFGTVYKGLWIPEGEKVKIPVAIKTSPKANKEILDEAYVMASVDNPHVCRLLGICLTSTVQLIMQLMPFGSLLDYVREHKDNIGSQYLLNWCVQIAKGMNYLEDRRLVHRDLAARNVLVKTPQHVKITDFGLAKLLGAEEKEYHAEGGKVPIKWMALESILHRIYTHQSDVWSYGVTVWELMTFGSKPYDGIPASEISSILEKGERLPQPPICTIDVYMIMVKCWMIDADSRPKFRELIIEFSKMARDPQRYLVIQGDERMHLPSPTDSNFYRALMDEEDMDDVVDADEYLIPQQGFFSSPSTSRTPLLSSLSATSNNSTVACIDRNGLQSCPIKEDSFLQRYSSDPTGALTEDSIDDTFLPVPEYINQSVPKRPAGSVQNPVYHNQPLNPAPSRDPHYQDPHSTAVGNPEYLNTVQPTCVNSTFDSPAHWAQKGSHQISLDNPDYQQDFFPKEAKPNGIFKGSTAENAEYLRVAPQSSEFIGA
Chain of EGFR L858R/T790M/C797S (P00533 25-1210 T790M/C797S/L858R): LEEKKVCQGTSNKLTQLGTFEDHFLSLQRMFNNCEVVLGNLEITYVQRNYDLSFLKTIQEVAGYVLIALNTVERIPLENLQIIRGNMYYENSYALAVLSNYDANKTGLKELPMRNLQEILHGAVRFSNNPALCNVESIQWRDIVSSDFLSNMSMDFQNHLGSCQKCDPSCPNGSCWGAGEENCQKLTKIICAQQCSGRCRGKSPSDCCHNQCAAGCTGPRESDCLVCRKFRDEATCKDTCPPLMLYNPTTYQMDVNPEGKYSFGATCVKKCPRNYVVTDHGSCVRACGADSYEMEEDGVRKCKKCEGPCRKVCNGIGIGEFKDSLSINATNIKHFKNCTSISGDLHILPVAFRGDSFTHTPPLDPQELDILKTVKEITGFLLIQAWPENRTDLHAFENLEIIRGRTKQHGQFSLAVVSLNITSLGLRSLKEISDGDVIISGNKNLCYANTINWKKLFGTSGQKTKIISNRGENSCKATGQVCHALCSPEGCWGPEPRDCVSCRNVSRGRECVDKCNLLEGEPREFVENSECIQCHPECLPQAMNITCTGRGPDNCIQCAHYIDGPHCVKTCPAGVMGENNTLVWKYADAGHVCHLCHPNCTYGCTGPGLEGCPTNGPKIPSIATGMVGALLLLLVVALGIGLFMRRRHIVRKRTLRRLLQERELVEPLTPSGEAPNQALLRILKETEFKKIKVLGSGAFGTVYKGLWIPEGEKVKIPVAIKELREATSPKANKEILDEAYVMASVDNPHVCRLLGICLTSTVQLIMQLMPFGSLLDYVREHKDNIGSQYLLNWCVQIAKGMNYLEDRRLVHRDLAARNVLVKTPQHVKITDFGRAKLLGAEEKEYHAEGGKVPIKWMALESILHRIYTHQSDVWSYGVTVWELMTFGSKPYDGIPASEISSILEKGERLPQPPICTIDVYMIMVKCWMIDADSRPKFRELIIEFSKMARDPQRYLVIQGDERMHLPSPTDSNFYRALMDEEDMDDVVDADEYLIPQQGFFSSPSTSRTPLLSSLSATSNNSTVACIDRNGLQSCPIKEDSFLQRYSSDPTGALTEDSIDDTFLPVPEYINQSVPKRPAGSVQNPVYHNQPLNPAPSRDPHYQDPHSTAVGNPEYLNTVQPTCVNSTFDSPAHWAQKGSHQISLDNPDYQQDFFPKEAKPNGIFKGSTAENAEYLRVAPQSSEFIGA
Chain of EGFR L858R/C797S (P00533 25-1210 C797S/L858R): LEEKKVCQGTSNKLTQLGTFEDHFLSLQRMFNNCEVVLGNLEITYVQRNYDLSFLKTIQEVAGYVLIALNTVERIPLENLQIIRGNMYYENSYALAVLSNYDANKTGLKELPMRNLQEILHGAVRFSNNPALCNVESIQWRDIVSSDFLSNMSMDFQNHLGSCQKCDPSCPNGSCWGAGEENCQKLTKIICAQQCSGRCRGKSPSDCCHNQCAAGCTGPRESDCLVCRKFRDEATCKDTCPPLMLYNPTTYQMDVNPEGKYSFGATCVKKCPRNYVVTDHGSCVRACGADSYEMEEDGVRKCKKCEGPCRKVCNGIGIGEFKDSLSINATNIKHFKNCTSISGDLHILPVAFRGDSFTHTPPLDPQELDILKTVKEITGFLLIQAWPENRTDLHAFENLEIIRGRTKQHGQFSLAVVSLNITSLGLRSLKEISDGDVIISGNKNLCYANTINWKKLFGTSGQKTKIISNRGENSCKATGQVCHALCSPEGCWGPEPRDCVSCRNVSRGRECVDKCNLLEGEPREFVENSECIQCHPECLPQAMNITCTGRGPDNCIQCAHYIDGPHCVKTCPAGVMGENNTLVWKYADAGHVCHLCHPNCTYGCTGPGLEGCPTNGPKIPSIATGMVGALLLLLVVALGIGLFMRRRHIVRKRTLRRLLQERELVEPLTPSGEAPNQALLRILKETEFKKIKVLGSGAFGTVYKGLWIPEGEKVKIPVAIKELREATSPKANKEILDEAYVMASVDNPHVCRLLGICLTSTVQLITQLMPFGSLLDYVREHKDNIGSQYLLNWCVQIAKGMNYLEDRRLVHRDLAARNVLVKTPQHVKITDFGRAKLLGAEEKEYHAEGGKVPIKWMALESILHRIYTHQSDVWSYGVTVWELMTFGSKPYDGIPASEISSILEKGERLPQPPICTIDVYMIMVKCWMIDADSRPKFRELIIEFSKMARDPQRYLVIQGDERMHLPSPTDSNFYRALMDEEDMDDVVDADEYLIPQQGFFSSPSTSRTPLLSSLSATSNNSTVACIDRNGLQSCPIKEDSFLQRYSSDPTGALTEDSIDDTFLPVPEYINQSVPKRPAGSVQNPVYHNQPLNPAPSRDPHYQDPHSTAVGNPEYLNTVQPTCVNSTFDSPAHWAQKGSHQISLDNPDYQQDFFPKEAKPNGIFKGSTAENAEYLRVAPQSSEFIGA

| SMILES | IC50 (EGFR L858R/T790M/C797S; [1]) [nM] | IC50 (EGFR L858R/T790M/C797S; [2]) [nM] | IC50 (EGFR wildtype (WT); IC50 WT (nM), 100 μM ATP) [nM] | IC50 (EGFR wildtype (WT); [3]) [nM] | IC50 (EGFR L858R/C797S; [4]) [nM] | IC50 (EGFR L858R/C797S; [5]) [nM] | IC50 (EGFR Del19/T790M/C797S; [6]) [nM] | IC50 (EGFR Del19/T790M/C797S; [7]) [nM] | IC50 (EGFR Del19/C797S; [8]) [nM] | IC50 (EGFR Del19/C797S; [9]) [nM] | IC50 (EGFR L858R/T790M/C797S; [10]) [nM] | IC50 (EGFR wildtype (WT); [11]) [nM] | IC50 (EGFR L858R/C797S; [12]) [nM] | IC50 (EGFR Del19/T790M/C797S; [13]) [nM] | IC50 (EGFR Del19/C797S; [14]) [nM] | IC50 (EGFR L858R/T790M/C797S; [15]) [nM] | IC50 (EGFR wildtype (WT); [16]) [nM] | IC50 (EGFR L858R/C797S; [17]) [nM] | IC50 (EGFR Del19/T790M/C797S; [18]) [nM] | IC50 (EGFR Del19/C797S; [19]) [nM] |
| --- | --- | --- | --- | --- | --- | --- | --- | --- | --- | --- | --- | --- | --- | --- | --- | --- | --- | --- | --- | --- |
| O=S(=O)(C1CC1)N1CCC(C#Cc2cnc(Nc3ccnc(-c4cnn(S(=O)(=O)C5CC5)c4)n3)cc2NC2CCC(O)CC2)C1 (stereo not drawn) [Example 394, (1s,4s)-4-((2-((2-(1-(Cyclopropylsulfonyl)-1H-pyrazol-4-yl)pyrimidin-4-yl)amino)-5-((1-(cyclopropylsulfonyl)pyrrolidin-3-yl)ethynyl)pyridin-4-yl)amino)cyclohexan-1-ol] | 1.5 | 0.2 | > 10000 | 15.7 | 52.5 | 4.3 | 0.6 | 0.5 | 12.3 | 7.5 | – | – | – | – | – | – | – | – | – | – |
| CC(=O)N1CCC(n2cc(C#Cc3cnc(Nc4ccnc(-c5cnn(S(=O)(=O)C6CC6)c5)n4)cc3N3CCC(C)(CO)CC3)cn2)CC1 [Example 110, 1-(4-(4-((6-((2-(1-(Cyclopropylsulfonyl)-1H-pyrazol-4-yl)pyrimidin-4-yl)amino)-4-(4-(hydroxymethyl)-4-methylpiperidin-1-yl)pyridin-3-yl)ethynyl)-1H-pyrazol-1-yl)piperidin-1-yl)ethan-1-one] | 1.3 | – | 296 | – | 2.7 | – | 1.2 | – | 1.7 | – | 0.6 | 2.8 | 0.8 | 1.1 | 1.8 | – | – | – | – | – |
| CC(=O)N1CCC(n2cc(C#Cc3cnc(Nc4ccnc(-c5cnn(S(=O)(=O)C6CC6)c5)n4)cc3N3CCCC(O)C3)cn2)CC1 (stereo not drawn) [Example 114, 1-(4-(4-((6-((2-(1-(Cyclopropylsulfonyl)-1H-pyrazol-4-yl)pyrimidin-4-yl)amino)-4-(3-hydroxypiperidin-1-yl)pyridin-3-yl)ethynyl)-1H-pyrazol-1-yl)piperidin-1-yl)ethan-1-one] | 1.7 | – | > 10000 | – | 13.7 | – | 0.5 | – | 9.5 | – | 0.6 | 17.4 | 2.6 | 0.5 | 5.4 | – | – | – | – | – |
| CC1(CO)CCN(c2cc(Nc3ccnc(-c4cnn(S(=O)(=O)C5CC5)c4)n3)ncc2C#CC2CCN(S(C)(=O)=O)C2)CC1 (stereo not drawn) [Example 401, (1-(2-((2-(1-(Cyclopropylsulfonyl)-1H-pyrazol-4-yl)pyrimidin-4-yl)amino)-5-((1-(methylsulfonyl)pyrrolidin-3-yl)ethynyl)pyridin-4-yl)-4-methylpiperidin-4-yl)methanol] | 0.5 | 0.4 | 3010 | 3.9 | 11.9 | 0.8 | 0.4 | 0.7 | 0.6 | 0.3 | – | – | – | – | – | – | – | – | – | – |
| C[C@]1(O)CC[C@@H](Nc2cc(Nc3ccnc(-c4cnn(S(=O)(=O)C5CC5)c4)n3)ncc2C#Cc2cnn(CC(F)F)c2)CC1 [Example 323, (1s,4s)-4-((2-((2-(1-(Cyclopropylsulfonyl)-1H-pyrazol-4-yl)pyrimidin-4-yl)amino)-5-((1-(2,2-difluoroethyl)-1H-pyrazol-4-yl)ethynyl)pyridin-4-yl)amino)-1-methylcyclohexan-1-ol] | 0.8 | – | > 10000 | – | 184 | – | 0.6 | – | 7.4 | – | – | – | – | – | – | 0.2 | 146 | 14.3 | 0.3 | 4.5 |
| CN(C)Cc1cccc(C#Cc2cnc(Nc3ccnc(-c4cnn(S(=O)(=O)C5CC5)c4)n3)cc2N2CCC(C)(CO)CC2)c1 [Example 255, (1-(2-((2-(1-(Cyclopropylsulfonyl)-1H-pyrazol-4-yl)pyrimidin-4-yl)amino)-5-((3-((dimethylamino)methyl)phenyl)ethynyl)pyridin-4-yl)-4-methylpiperidin-4-yl)methanol] | 0.3 | – | 376 | – | 1.2 | – | 0.2 | – | 0.4 | – | – | – | – | – | – | 0.1 | 1 | 1.4 | 1.3 | 0.3 |
| CC1(CO)CCN(c2cc(Nc3ccnc(-c4cnn(S(=O)(=O)C5CC5)c4)n3)ncc2C#Cc2cnn(C3CCOCC3)c2)CC1 [Example 95, (1-(2-((2-(1-(Cyclopropylsulfonyl)-1H-pyrazol-4-yl)pyrimidin-4-yl)amino)-5-((1-(tetrahydro-2H-pyran-4-yl)-1H-pyrazol-4-yl)ethynyl)pyridin-4-yl)-4-methylpiperidin-4-yl)methanol] | 2 | – | 1040 | – | 4.1 | – | 1.6 | – | 2.3 | – | 0.9 | 5 | 1.4 | 1.5 | 2.7 | – | – | – | – | – |
| CC1(CO)CCN(c2cc(Nc3ccnc(-c4cnn(S(=O)(=O)C5CC5)c4)n3)ncc2C#CC2CCS(=O)(=O)C2)CC1 (stereo not drawn) [Example 437, 3-((6-((2-(1-(Cyclopropylsulfonyl)-1H-pyrazol-4-yl)pyrimidin-4-yl)amino)-4-(4-(hydroxymethyl)-4-methylpiperidin-1-yl)pyridin-3-yl)ethynyl)tetrahydrothiophene 1,1-dioxide] | 0.1 | 0.1 | > 10000 | 3.7 | 39.3 | 0.8 | 0.1 | 0.1 | 1.3 | 0.6 | – | – | – | – | – | – | – | – | – | – |
| O=S(=O)(C1CC1)n1cc(-c2nccc(Nc3cc(N[C@H]4CC[C@@H](O)CC4)c(C#CC4(O)CCCC4)cn3)n2)cn1 [Example 176, (1s,4s)-4-((2-((2-(1-(Cyclopropylsulfonyl)-1H-pyrazol-4-yl)pyrimidin-4-yl)amino)-5-((1-hydroxycyclopentyl)ethynyl)pyridin-4-yl)amino)cyclohexan-1-ol] | 0.8 | – | > 10000 | – | 104 | – | 0.4 | – | 3.6 | – | – | – | – | – | – | 0.3 | 40.1 | 14.2 | 0.5 | 3 |
